ChEMBL document CHEMBL3991601, “The target landscape of clinical kinase drugs” (Science, 2017)
The source made the active and inactive calls.

How the values were obtained:
[1] = biological target: Mitogen-activated protein kinase kinase kinase 4 (Homo sapiens, UniProt Q9Y6R4)
[2] = biological target: T1, Peroxisomal acyl-coenzyme A oxidase 3 (Homo sapiens, UniProt O15254)
T1 sequence (O15254 whole entry): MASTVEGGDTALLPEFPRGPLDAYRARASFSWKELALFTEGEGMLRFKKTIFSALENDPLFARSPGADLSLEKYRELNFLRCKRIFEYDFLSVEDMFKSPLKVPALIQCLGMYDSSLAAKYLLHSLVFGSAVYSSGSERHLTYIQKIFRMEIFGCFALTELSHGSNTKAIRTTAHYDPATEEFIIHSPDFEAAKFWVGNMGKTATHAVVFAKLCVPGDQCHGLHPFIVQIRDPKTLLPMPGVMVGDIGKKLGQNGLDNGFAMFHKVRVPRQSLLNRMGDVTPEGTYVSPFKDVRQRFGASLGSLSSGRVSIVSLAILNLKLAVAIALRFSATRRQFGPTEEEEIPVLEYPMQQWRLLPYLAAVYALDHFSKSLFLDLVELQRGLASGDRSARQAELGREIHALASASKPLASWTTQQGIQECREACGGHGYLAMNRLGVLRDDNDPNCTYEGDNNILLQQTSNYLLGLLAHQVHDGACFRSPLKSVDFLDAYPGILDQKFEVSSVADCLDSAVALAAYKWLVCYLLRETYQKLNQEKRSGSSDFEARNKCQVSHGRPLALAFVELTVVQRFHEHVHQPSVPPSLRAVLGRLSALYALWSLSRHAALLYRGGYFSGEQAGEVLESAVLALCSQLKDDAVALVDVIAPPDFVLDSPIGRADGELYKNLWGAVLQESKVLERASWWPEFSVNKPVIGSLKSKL

[3] = biological target: RAC-gamma serine/threonine-protein kinase (Homo sapiens, UniProt Q9Y243)
Sequence of RAC-gamma serine/threonine-protein kinase (Q9Y243 whole entry): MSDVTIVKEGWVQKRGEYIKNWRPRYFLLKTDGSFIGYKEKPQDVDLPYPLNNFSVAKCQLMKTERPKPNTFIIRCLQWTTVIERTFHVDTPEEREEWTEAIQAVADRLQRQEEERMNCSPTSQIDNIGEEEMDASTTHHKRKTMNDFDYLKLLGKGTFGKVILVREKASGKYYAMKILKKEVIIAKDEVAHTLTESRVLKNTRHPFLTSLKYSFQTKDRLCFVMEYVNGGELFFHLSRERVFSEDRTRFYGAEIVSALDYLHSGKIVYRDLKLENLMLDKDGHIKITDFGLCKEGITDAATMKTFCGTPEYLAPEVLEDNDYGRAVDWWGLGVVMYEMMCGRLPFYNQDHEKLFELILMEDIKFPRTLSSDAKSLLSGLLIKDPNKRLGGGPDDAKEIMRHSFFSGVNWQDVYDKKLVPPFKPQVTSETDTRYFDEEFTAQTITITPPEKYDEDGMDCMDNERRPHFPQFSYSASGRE

[4] = biological target: Insulin-like growth factor 1 receptor (Homo sapiens, UniProt P08069)
[5] = biological target: Non-receptor tyrosine-protein kinase TYK2 (Homo sapiens, UniProt P29597)
Sequence of Non-receptor tyrosine-protein kinase TYK2 (P29597 whole entry): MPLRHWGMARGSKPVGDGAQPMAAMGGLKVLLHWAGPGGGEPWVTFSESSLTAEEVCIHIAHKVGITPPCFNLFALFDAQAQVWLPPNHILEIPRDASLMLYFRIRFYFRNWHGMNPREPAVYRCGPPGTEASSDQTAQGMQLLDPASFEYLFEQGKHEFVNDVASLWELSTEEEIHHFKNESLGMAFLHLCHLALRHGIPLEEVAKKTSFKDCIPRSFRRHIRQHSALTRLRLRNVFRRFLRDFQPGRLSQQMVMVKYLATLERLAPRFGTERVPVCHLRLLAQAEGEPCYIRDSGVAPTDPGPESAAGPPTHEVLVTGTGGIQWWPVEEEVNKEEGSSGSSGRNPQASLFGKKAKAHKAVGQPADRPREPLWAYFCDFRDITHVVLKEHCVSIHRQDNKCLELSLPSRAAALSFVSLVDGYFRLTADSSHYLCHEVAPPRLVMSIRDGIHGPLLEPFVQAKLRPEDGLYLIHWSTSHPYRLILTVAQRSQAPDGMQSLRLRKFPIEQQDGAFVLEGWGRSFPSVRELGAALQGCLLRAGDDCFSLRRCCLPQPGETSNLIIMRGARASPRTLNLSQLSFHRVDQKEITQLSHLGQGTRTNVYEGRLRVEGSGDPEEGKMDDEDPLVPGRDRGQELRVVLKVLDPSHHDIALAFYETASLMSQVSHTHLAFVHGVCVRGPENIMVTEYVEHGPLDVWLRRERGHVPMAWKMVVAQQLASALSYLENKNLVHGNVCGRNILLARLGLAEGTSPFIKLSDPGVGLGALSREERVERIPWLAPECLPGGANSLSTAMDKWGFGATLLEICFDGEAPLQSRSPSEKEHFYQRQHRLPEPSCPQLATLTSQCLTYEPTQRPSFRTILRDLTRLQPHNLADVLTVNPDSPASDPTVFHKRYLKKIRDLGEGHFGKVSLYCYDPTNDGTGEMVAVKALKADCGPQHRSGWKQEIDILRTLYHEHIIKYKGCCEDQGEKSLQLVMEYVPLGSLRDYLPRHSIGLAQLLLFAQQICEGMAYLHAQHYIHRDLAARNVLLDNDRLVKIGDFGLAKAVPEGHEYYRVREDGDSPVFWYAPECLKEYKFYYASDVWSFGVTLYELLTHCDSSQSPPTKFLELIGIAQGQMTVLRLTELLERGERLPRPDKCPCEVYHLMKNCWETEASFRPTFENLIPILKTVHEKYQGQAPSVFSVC

[6] = biological target: T2, Beta-adrenergic receptor kinase 1 (Homo sapiens, UniProt P25098)
T2 sequence (P25098 whole entry): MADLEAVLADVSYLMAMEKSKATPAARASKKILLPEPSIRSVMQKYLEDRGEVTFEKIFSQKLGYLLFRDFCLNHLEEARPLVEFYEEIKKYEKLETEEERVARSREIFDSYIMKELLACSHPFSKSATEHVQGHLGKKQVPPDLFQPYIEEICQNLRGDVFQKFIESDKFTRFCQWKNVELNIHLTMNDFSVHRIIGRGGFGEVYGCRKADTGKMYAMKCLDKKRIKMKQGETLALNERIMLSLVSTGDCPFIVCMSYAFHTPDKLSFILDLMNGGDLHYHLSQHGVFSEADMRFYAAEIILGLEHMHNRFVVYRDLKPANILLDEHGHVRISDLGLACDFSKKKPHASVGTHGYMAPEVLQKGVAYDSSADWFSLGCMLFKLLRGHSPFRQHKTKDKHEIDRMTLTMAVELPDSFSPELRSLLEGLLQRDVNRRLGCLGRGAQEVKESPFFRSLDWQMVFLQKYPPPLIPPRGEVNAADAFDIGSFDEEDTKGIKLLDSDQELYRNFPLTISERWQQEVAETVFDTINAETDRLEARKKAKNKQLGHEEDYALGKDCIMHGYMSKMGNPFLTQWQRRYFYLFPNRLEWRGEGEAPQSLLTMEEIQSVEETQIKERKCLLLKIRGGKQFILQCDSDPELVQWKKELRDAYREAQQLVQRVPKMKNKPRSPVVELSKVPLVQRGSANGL

[7] = biological target: S-adenosylmethionine synthase isoform type-2 (Homo sapiens, UniProt P31153)
Sequence of S-adenosylmethionine synthase isoform type-2 (P31153 whole entry, canonical isoform): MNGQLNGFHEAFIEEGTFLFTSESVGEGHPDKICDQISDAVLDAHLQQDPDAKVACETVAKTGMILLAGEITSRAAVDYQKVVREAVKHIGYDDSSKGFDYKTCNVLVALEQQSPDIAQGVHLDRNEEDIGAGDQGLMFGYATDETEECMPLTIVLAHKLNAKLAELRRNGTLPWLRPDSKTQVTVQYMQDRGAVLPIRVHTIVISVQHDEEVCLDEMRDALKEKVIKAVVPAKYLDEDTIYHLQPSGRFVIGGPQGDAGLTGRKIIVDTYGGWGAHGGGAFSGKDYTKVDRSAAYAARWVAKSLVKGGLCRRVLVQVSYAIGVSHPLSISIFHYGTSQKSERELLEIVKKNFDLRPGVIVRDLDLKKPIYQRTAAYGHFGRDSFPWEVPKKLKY

[8] = biological target: Mitogen-activated protein kinase 11 (Homo sapiens, UniProt Q15759)
Sequence of Mitogen-activated protein kinase 11 (Q15759 whole entry): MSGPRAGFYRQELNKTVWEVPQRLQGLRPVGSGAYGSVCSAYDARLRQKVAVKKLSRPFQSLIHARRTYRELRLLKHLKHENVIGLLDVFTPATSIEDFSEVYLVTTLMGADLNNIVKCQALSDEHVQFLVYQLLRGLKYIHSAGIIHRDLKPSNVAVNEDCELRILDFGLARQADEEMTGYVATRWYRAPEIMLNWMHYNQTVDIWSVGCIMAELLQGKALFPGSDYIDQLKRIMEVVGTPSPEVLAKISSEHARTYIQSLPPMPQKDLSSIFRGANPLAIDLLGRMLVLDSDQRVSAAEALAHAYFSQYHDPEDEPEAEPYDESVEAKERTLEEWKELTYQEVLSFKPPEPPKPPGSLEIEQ

[9] = biological target: Maternal embryonic leucine zipper kinase (Homo sapiens, UniProt Q14680)
Sequence of Maternal embryonic leucine zipper kinase (Q14680 whole entry): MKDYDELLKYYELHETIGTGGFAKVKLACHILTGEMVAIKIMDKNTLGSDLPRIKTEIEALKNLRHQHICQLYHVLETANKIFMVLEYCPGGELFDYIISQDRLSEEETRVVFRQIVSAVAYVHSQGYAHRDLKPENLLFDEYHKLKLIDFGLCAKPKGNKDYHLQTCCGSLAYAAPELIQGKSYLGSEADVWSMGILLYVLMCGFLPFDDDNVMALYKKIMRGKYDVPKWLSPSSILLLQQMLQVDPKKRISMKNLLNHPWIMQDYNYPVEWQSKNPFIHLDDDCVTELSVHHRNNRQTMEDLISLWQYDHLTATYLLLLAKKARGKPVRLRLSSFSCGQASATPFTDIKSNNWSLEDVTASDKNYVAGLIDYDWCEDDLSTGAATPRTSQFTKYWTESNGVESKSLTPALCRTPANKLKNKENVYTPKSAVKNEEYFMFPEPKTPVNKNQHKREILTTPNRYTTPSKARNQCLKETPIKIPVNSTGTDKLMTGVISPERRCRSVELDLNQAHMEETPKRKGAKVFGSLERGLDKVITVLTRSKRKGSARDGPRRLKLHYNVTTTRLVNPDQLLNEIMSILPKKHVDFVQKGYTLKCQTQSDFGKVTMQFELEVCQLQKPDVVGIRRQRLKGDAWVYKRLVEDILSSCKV

[10] = biological target: Eukaryotic translation initiation factor 2-alpha kinase 1 (Homo sapiens, UniProt Q9BQI3)
Further: in the data inactive means no Kd found up to 30 µM.

Sequence of Mitogen-activated protein kinase kinase kinase 4 (Q9Y6R4 whole entry): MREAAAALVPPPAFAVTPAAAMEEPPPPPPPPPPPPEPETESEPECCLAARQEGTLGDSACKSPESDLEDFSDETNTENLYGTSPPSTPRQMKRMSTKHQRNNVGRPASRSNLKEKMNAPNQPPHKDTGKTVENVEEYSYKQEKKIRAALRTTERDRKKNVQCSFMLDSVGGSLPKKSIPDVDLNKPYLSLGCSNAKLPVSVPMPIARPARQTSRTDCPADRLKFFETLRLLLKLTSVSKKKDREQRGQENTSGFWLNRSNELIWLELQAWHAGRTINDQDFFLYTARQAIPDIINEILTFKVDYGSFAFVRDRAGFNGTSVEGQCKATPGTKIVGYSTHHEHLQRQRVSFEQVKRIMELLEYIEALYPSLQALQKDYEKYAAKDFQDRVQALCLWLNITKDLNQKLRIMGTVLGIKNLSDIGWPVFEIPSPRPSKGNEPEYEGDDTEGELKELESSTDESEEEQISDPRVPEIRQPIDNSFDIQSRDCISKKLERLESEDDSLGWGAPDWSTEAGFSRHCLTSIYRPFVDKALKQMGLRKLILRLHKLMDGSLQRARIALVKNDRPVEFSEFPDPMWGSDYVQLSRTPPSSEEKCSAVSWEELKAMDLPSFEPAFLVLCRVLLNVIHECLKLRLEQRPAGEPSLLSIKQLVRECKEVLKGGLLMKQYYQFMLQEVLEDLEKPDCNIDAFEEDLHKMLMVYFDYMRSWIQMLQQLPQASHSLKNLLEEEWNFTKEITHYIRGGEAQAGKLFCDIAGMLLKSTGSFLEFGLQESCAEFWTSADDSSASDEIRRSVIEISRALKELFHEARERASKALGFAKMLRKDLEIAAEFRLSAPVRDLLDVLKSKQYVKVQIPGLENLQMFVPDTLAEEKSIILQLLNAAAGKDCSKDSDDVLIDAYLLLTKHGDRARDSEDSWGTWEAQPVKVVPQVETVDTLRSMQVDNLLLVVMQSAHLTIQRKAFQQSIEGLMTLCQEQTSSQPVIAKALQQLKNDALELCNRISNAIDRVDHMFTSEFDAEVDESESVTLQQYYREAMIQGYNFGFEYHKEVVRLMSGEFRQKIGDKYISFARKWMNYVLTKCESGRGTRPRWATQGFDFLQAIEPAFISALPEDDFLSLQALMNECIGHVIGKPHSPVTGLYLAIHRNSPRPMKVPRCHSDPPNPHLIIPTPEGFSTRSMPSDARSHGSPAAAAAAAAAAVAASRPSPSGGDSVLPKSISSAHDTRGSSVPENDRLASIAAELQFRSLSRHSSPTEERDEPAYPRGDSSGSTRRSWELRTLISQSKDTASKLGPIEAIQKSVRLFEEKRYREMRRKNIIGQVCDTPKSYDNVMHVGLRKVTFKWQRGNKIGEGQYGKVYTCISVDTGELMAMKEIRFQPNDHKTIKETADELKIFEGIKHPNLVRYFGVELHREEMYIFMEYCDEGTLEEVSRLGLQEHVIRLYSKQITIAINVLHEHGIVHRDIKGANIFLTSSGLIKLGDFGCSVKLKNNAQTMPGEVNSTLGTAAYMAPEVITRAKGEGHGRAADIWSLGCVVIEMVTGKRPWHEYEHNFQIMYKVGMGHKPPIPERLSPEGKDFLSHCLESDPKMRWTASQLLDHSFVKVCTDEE

| Structure (SMILES) | Kd [1] | Kd [2] | Kd [3] | Kd [4] | Kd [5] | Kd [6] | Kd [7] | Kd [8] | Kd [9] | Kd [10] |
| --- | --- | --- | --- | --- | --- | --- | --- | --- | --- | --- |
| O=c1sn(-c2cccc3ccccc23)c(=O)n1Cc1ccccc1 [TIDEGLUSIB] | > 30 µM (inactive) | > 30 µM (inactive) | > 30 µM (inactive) | > 30 µM (inactive) | > 30 µM (inactive) | > 30 µM (inactive) | > 30 µM (inactive) | > 30 µM (inactive) | > 30 µM (inactive) | > 30 µM (inactive) |
| CNS(=O)(=O)Nc1nccc(Cc2c(C)c3ccc(Oc4ncccn4)cc3oc2=O)c1F [AVUTOMETINIB] | > 30 µM (inactive) | > 30 µM (inactive) | > 30 µM (inactive) | > 30 µM (inactive) | > 30 µM (inactive) | > 30 µM (inactive) | > 30 µM (inactive) | > 30 µM (inactive) | > 30 µM (inactive) | > 30 µM (inactive) |
| CN(C)C(=O)c1cc2cnc(Nc3ccc(N4CCNCC4)cn3)nc2n1C1CCCC1 [RIBOCICLIB] | > 30 µM (inactive) | > 30 µM (inactive) | > 30 µM (inactive) | > 30 µM (inactive) | > 30 µM (inactive) | > 30 µM (inactive) | > 30 µM (inactive) | > 30 µM (inactive) | > 30 µM (inactive) | > 30 µM (inactive) |
| COc1ccc(-c2ccc3c(N4CCOC[C@@H]4C)nc(N4CCOC[C@@H]4C)nc3n2)cc1CO [AZD-8055] | > 30 µM (inactive) | > 30 µM (inactive) | > 30 µM (inactive) | > 30 µM (inactive) | > 30 µM (inactive) | > 30 µM (inactive) | > 30 µM (inactive) | > 30 µM (inactive) | > 30 µM (inactive) | > 30 µM (inactive) |
| CNC(=O)CN1CCC(Oc2cc3c(Nc4cccc(Cl)c4F)ncnc3cc2OC)CC1 [SAPITINIB] | > 30 µM (inactive) | > 30 µM (inactive) | > 30 µM (inactive) | > 30 µM (inactive) | > 30 µM (inactive) | > 30 µM (inactive) | > 30 µM (inactive) | > 30 µM (inactive) | > 30 µM (inactive) | > 30 µM (inactive) |
| CCCS(=O)(=O)Nc1ccc(F)c(C(=O)c2c[nH]c3ncc(-c4ccc(Cl)cc4)cc23)c1F [VEMURAFENIB] | > 30 µM (inactive) | > 30 µM (inactive) | > 30 µM (inactive) | > 30 µM (inactive) | > 30 µM (inactive) | > 30 µM (inactive) | > 30 µM (inactive) | > 30 µM (inactive) | > 30 µM (inactive) | > 30 µM (inactive) |
| COC(=O)[C@@]1(O)C[C@H]2O[C@]1(C)n1c3ccccc3c3c4c(c5c6ccccc6n2c5c31)C(=O)NC4 [K-252A] | > 30 µM (inactive) | > 30 µM (inactive) | > 30 µM (inactive) | > 30 µM (inactive) | > 30 µM (inactive) | > 30 µM (inactive) | > 30 µM (inactive) | > 30 µM (inactive) | 0.083 µM (active) | > 30 µM (inactive) |
| COc1cc(N2CCC(N3CCN(C)CC3)CC2)ccc1Nc1ncnc(Nc2ccccc2S(=O)(=O)C(C)C)n1 [ASP-3026] | > 30 µM (inactive) | > 30 µM (inactive) | > 30 µM (inactive) | 9.72 µM (active) | > 30 µM (inactive) | > 30 µM (inactive) | > 30 µM (inactive) | > 30 µM (inactive) | > 30 µM (inactive) | > 30 µM (inactive) |
| CNC(=O)c1ccc(-c2cnc3ncc(Cc4ccc5ncccc5c4)n3n2)cc1F [CAPMATINIB] | > 30 µM (inactive) | > 30 µM (inactive) | > 30 µM (inactive) | > 30 µM (inactive) | > 30 µM (inactive) | > 30 µM (inactive) | > 30 µM (inactive) | > 30 µM (inactive) | > 30 µM (inactive) | > 30 µM (inactive) |
| CCn1c(=O)c(-c2cc[nH]n2)cc2c(C)nc(N)nc21 [VOXTALISIB] | > 30 µM (inactive) | > 30 µM (inactive) | > 30 µM (inactive) | > 30 µM (inactive) | > 30 µM (inactive) | > 30 µM (inactive) | > 30 µM (inactive) | > 30 µM (inactive) | > 30 µM (inactive) | > 30 µM (inactive) |
| Cc1cc2c(F)c(Oc3ncnn4cc(OC[C@@H](C)OC(=O)[C@H](C)N)c(C)c34)ccc2[nH]1 [BRIVANIB ALANINATE] | > 30 µM (inactive) | > 30 µM (inactive) | > 30 µM (inactive) | > 30 µM (inactive) | > 30 µM (inactive) | > 30 µM (inactive) | > 30 µM (inactive) | > 30 µM (inactive) | > 30 µM (inactive) | > 30 µM (inactive) |
| COc1cc(OC)c(/C=C/S(=O)(=O)Cc2ccc(OC)c(NCC(=O)O)c2)c(OC)c1 [RIGOSERTIB] | > 30 µM (inactive) | > 30 µM (inactive) | > 30 µM (inactive) | > 30 µM (inactive) | > 30 µM (inactive) | > 30 µM (inactive) | > 30 µM (inactive) | > 30 µM (inactive) | > 30 µM (inactive) | > 30 µM (inactive) |
| C=CC(=O)N1CCC(Oc2cc3c(Nc4ccc(Cl)c(Cl)c4F)ncnc3cc2OC)CC1 [POZIOTINIB] | > 30 µM (inactive) | > 30 µM (inactive) | > 30 µM (inactive) | > 30 µM (inactive) | > 30 µM (inactive) | > 30 µM (inactive) | > 30 µM (inactive) | > 30 µM (inactive) | > 30 µM (inactive) | > 30 µM (inactive) |
| Cc1ccc(-n2nc(C(C)(C)C)cc2NC(=O)NCc2cc(F)ccc2Oc2ccc3c(cnn3CCO)c2)cc1 [PEXMETINIB] | > 30 µM (inactive) | > 30 µM (inactive) | > 30 µM (inactive) | > 30 µM (inactive) | > 30 µM (inactive) | > 30 µM (inactive) | > 30 µM (inactive) | 0.192 µM (active) | > 30 µM (inactive) | > 30 µM (inactive) |
| CC[C@H](Nc1ncnc2[nH]cnc12)c1nc2cccc(F)c2c(=O)n1-c1ccccc1 [IDELALISIB] | > 30 µM (inactive) | > 30 µM (inactive) | > 30 µM (inactive) | > 30 µM (inactive) | > 30 µM (inactive) | > 30 µM (inactive) | > 30 µM (inactive) | > 30 µM (inactive) | > 30 µM (inactive) | > 30 µM (inactive) |
| O=C1NC(=O)/C(=C/c2ccc3nccc(-c4ccncc4)c3c2)S1 [GSK-1059615] | > 30 µM (inactive) | > 30 µM (inactive) | > 30 µM (inactive) | > 30 µM (inactive) | > 30 µM (inactive) | > 30 µM (inactive) | > 30 µM (inactive) | > 30 µM (inactive) | > 30 µM (inactive) | > 30 µM (inactive) |
| CNC(=O)c1cc(Oc2ccc(NC(=O)Nc3ccc(Cl)c(C(F)(F)F)c3)c(F)c2)ccn1 [REGORAFENIB] | > 30 µM (inactive) | > 30 µM (inactive) | > 30 µM (inactive) | > 30 µM (inactive) | > 30 µM (inactive) | > 30 µM (inactive) | > 30 µM (inactive) | 1.91 µM (active) | > 30 µM (inactive) | > 30 µM (inactive) |
| CN1N=C(N)c2cn([C@@H]3O[C@H](COP(=O)(O)O)[C@@H](O)[C@H]3O)c3ncnc1c23 [TRICIRIBINE PHOSPHATE] | > 30 µM (inactive) | > 30 µM (inactive) | > 30 µM (inactive) | > 30 µM (inactive) | > 30 µM (inactive) | > 30 µM (inactive) | > 30 µM (inactive) | > 30 µM (inactive) | > 30 µM (inactive) | – |
